Patent publication US11708348B2, “Protease inhibitors for treatment of coronavirus infections” (The Scripps Research Institute, priority 2021, dated 2023)

The compounds below were run on SARS-CoV-2 strain USA-WA1/2020 (assay: microbe, parasite or virus in culture). Conditions: Severe acute respiratory syndrome coronavirus 2, HeLa-ACE2, 24 h, HeLa-ACE2 cells, SARS-CoV-2 infection, 24 h; cells given as a bound; read-out: EC50, uM (Hela).
Assay type: cell-based

SMILES | EC50 [µM]
CC(=O)N1CCN(C(=O)C(=O)N[C@@H](CC(C)C)C(=O)N[C@@H](C[C@@H]2CCNC2=O)C(=O)COc2c(F)c(F)cc(F)c2F)CC1 [Compound 104, (S)-2-(2-(4-acetylpiperazin-1-yl)-2-oxoacetamido)-4-methyl-N-((S)-3-oxo-1-((S)-2-oxopyrrolidin-3-yl)-4-(2,3,5,6-tetrafluorophenoxy)butan-2-yl)pentanamide] | > 1

Same assay, conditions: Severe acute respiratory syndrome coronavirus 2, HeLa-ACE2, 24 h, HeLa-ACE2 cells, SARS-CoV-2 infection, 24 h; class symbols; read-out: EC50, uM (Hela)

SMILES | EC50 [µM]
CC(C)(C)C[C@H](NC(=O)C(=O)NC(C)(C)C)C(=O)N[C@@H](C[C@@H]1CCNC1=O)C(=O)COC(F)(F)F [Compound 172, N1-(tert-butyl)-N2-((S)-4,4-dimethyl-1-oxo-1-(((S)-3-oxo-1-((S)-2-oxopyrrolidin-3-yl)-4-(trifluoromethoxy)butan-2-yl)amino)pentan-2-yl)oxalamide] | < 0.05
CC1(C)[C@@H]2[C@@H](C(=O)N[C@@H](C[C@@H]3CCNC3=O)C(=O)COC(F)(F)F)N(C(=O)c3cc(C(F)(F)F)on3)C[C@@H]21 [Compound 283, (1R,2S,5S)-6,6-dimethyl-N-((S)-3-oxo-1-((S)-2-oxopyrrolidin-3-yl)-4-(trifluoromethoxy)butan-2-yl)-3-(5-(trifluoromethyl)-isoxazole-3-carbonyl)-3-azabicyclo[3.1.0]-hexane-2-carboxamide] | < 0.05
CC(C)C[C@H](NC(=O)C(=O)Nc1ccc(F)cc1F)C(=O)N[C@@H](C[C@@H]1CCNC1=O)C(=O)COc1c(F)c(F)cc(F)c1F [Compound 78, N1-(2,4-difluorophenyl)-N2-((S)-4-methyl-1-oxo-1-(((S)-3-oxo-1-((S)-2-oxopyrrolidin-3-yl)-4-(2,3,5,6-tetrafluorophenoxy)butan-2-yl)amino)pentan-2-yl)oxalamide] | < 0.05
CC1(C)[C@@H]2[C@@H](C(=O)N[C@@H](C[C@@H]3CCNC3=O)C(=O)COC(F)(F)F)N(C(=O)[C@H](O)C(F)(F)F)C[C@@H]21 [Compound 386, (1R,2S,5S)-6,6-dimethyl-N-((S)-3-oxo-1-((S)-2-oxopyrrolidin-3-yl)-4-(trifluoromethoxy)butan-2-yl)-3-((S)-3,3,3-trifluoro-2-hydroxypropanoyl)-3-azabicyclo[3.1.0]-hexane-2-carboxamide] | 0.05 to 0.2

Same assay, conditions: Severe acute respiratory syndrome coronavirus 2, HeLa-ACE2, 24 h, HeLa-ACE2 cells, SARS-CoV-2 infection, 24 h; read-out: EC50, uM (Hela)

SMILES | EC50 [µM]
O=C1NCC[C@H]1C[C@H](NC(=O)[C@@H]1CC2(CC2)CN1C(=O)C1CCCC1)C(=O)COC(F)(F)F [Compound 723, (S)-5-(cyclopentanecarbonyl)-N-((S)-3-oxo-1-((S)-2-oxopyrrolidin-3-yl)-4-(trifluoromethoxy)butan-2-yl)-5-azaspiro[2.4]heptane-6-carboxamide] | 0.05 to 0.2
CC(C)(C)NC(=O)C(=O)N1CC2(COC2)C[C@@H]1C(=O)N[C@@H](C[C@@H]1CCNC1=O)C(=O)COC(F)(F)F [Compound 514, (R)-6-(2-(tert-butylamino)-2-oxoacetyl)-N-((S)-3-oxo-1-((S)-2-oxopyrrolidin-3-yl)-4-(trifluoromethoxy)butan-2-yl)-2-oxa-6-azaspiro[3.4]octane-7-carboxamide] | 0.5 to 1
CC(C)C[C@@H](O)C(=O)N1CC[C@@H](C(C)(C)C)C[C@H]1C(=O)N[C@@H](C[C@@H]1CCNC1=O)C(=O)COC(F)(F)F [Compound 637, (2S,4R)-4-(tert-butyl)-1-((R)-2-hydroxy-4-methylpentanoyl)-N-((S)-3-oxo-1-((S)-2-oxopyrrolidin-3-yl)-4-(trifluoromethoxy)butan-2-yl)piperidine-2-carboxamide] | < 0.05
O=C(NC1CC1)C(=O)N1C[C@@H]2CCC[C@@H]2[C@H]1C(=O)N[C@@H](C[C@@H]1CCNC1=O)C(=O)COC(F)(F)F [Compound 497, (1S,3aR,6aS)-2-(2-(cyclopropylamino)-2-oxoacetyl)-N-((S) -3-oxo-1-((S)-2-oxopyrrolidin-3-yl)-4-(trifluoromethoxy)butan-2-yl)octahydrocyclo-penta[c]pyrrole-1-carboxamide] | 0.05 to 0.2
O=C(Nc1cccc(Cl)c1)C(=O)N1CC2(CC2)C[C@H]1C(=O)N[C@@H](C[C@@H]1CCNC1=O)C(=O)COC(F)(F)F [Compound 607, (S)-5-(2-((3-chlorophenyl)amino)-2-oxoacetyl)-N-((S)-3-oxo-1-((S)-2-oxopyrrolidin-3-yl)-4-(trifluoromethoxy)butan-2-yl)-5-azaspiro[2.4]heptane-6-carboxamide] | < 0.05
O=C1NCC[C@H]1C[C@H](NC(=O)[C@@H]1CC2(CC2)CN1C(=O)[C@@H]1C[C@H]1C(F)(F)F)C(=O)COC(F)(F)F [Compound 718, (S)-N-((S)-3-oxo-1-((S)-2-oxopyrrolidin-3-yl)-4-(trifluoromethoxy)butan-2-yl)-5-((1R,2R)-2-(trifluoromethyl)cyclopropane-1-carbonyl)-5-azaspiro[2.4]heptane-6-carboxamide] | < 0.05
CC1(C)[C@@H]2[C@@H](C(=O)N[C@@H](C[C@@H]3CCNC3=O)C(=O)COC(F)(F)F)N(C(=O)[C@@H](O)c3ccccc3)C[C@@H]21 [Compound 416, (1R,2S,5S)-3-((S)-2-hydroxy-2-phenylacetyl)-6,6-dimethyl-N—((S)-3-oxo-1-((S)-2-oxopyrrolidin-3-yl)-4-(trifluoromethoxy)butan-2-yl)-3-azabicyclo[3.1.0]hexane-2-carboxamide] | < 0.05
C=CC[C@@H](O)C(=O)N1CC2(CC2)C[C@H]1C(=O)N[C@@H](C[C@@H]1CCNC1=O)C(=O)COC(F)(F)F [Compound 662, (S)-5-((R)-2-hydroxypent-4-enoyl)-N-((S)-3-oxo-1-((S)-2-oxopyrrolidin-3-yl)-4-(trifluoromethoxy)butan-2-yl)-5-azaspiro[2.4]heptane-6-carboxamide] | 0.05 to 0.2
CC(C)(C)NC(=O)C(=O)N1C[C@@H]2CCC[C@@H]2[C@H]1C(=O)N[C@@H](Cc1ccc[nH]c1=O)C(=O)COC(F)(F)F [Compound 574, (1S,3aR,6aS)-2-(2-(tert-butylamino)-2-oxoacetyl)-N-((S)-3-oxo-1-(2-oxo-1,2-dihydropyridin-3-yl)-4-(trifluoromethoxy)butan-2-yl)octahydrocyclo-penta[c]pyrrole-1-carboxamide] | 0.5 to 1
O=C1NCC[C@H]1C[C@H](NC(=O)[C@@H]1CC2(CC2)CN1C(=O)C12CC(F)(C1)C2)C(=O)COC(F)(F)F [Compound 627, (S)-5-(3-fluorobicyclo[1.1.1]pentane-1-carbonyl)-N-((S)-3-oxo-1-((S)-2-oxopyrrolidin-3-yl)-4-(trifluoromethoxy)butan-2-yl)-5-azaspiro[2.4]heptane-6-carboxamide] | 0.05 to 0.2
O=C(N[C@@H](Cc1ccccc1)C(=O)N[C@@H](C[C@@H]1CCNC1=O)C(=O)COC(F)(F)F)c1cc(-c2ccccc2F)on1 [Compound 460, 5-(2-fluorophenyl)-N-((S)-1-oxo-1-(((S)-3-oxo-1-((S)-2-oxopyrrolidin-3-yl)-4-(trifluoromethoxy)butan-2-yl)amino)-3-phenylpropan-2-yl)isoxazole-3-carboxamide] | < 0.05
CC(C)OCC(=O)N1CC2(CC2)C[C@H]1C(=O)N[C@@H](C[C@@H]1CCNC1=O)C(=O)COC(F)(F)F [Compound 647, (888S)-5-(2-isopropoxyacetyl)-N-((S)-3-oxo-1-((S)-2-oxopyrrolidin-3-yl)-4-(trifluoromethoxy)butan-2-yl)-5-azaspiro[2.4]heptane-6-carboxamide] | 0.05 to 0.2
